Experiments:
CDK4-cyclinD3 = biological target: T1, CDK4-cyclinD3 (Homo sapiens, UniProt P11802); assay: KINOMEscan; assay type: binding; settings: read-out: %Ctrl @ 10000nM
T1 construct: purchased DiscoverX KINOMEscan

CSNK1G1 = biological target: T2, CSNK1G1 (Homo sapiens, UniProt Q9HCP0); assay: KINOMEscan; assay type: binding; settings: read-out: %Ctrl @ 10000nM
T2 construct: purchased DiscoverX KINOMEscan

NLK = biological target: T3, NLK (Homo sapiens, UniProt Q9UBE8); assay: KINOMEscan; assay type: binding; settings: read-out: %Ctrl @ 10000nM
T3 construct: purchased DiscoverX KINOMEscan

DDR1 = biological target: T4, DDR1 (Homo sapiens, UniProt Q08345); assay: KINOMEscan; assay type: binding; settings: read-out: %Ctrl @ 10000nM
T4 construct: purchased DiscoverX KINOMEscan

VRK2 = biological target: T5, VRK2 (Homo sapiens, UniProt Q86Y07); assay: KINOMEscan; assay type: binding; settings: read-out: %Ctrl @ 10000nM
T5 construct: DNA label for qPCR (T7 phage fusion or DNA tag); purchased DiscoverX scanMAX; host or cells: E. coli BL21-derived (T7 phage) or HEK-293

STK36 = biological target: T6, STK36 (Homo sapiens, UniProt Q9NRP7); assay: KINOMEscan; assay type: binding; settings: read-out: %Ctrl @ 10000nM
T6 construct: purchased DiscoverX KINOMEscan

MARK2 = biological target: T7, MARK2 (Homo sapiens, UniProt Q7KZI7); assay: KINOMEscan; assay type: binding; settings: read-out: %Ctrl @ 10000nM
T7 construct: purchased DiscoverX KINOMEscan

PHKG2 = biological target: T8, PHKG2 (Homo sapiens, UniProt P15735); assay: KINOMEscan; assay type: binding; settings: read-out: %Ctrl @ 10000nM
T8 construct: purchased DiscoverX KINOMEscan

ZAP70 = biological target: T9, ZAP70 (Homo sapiens, UniProt P43403); assay: KINOMEscan; assay type: binding; settings: read-out: %Ctrl @ 10000nM
T9 construct: purchased DiscoverX scanMAX; host or cells: E. coli BL21-derived host (T7 phage) or HEK-293

YSK1 = biological target: T10, YSK1 (Homo sapiens, UniProt O00506); assay: KINOMEscan; assay type: binding; settings: read-out: %Ctrl @ 10000nM
T10 construct: purchased DiscoverX scanMAX; host or cells: E. coli BL21-derived host (T7 phage) or HEK-293

MLK3 = biological target: T11, MLK3 (Homo sapiens, UniProt Q16584); assay: KINOMEscan; assay type: binding; settings: read-out: %Ctrl @ 10000nM
T11 construct: purchased DiscoverX KINOMEscan

ERK3 = biological target: T12, ERK3 (Homo sapiens, UniProt Q16659); assay: KINOMEscan; assay type: binding; settings: read-out: %Ctrl @ 10000nM
T12 construct: purchased DiscoverX KINOMEscan

DYRK1A = biological target: T13, DYRK1A (Homo sapiens, UniProt Q13627); assay: KINOMEscan; assay type: binding; settings: read-out: %Ctrl @ 10000nM
T13 construct: purchased DiscoverX KINOMEscan

TSSK1B = biological target: T14, TSSK1B (Homo sapiens, UniProt Q9BXA7); assay: KINOMEscan; assay type: binding; settings: read-out: %Ctrl @ 10000nM
T14 construct: DNA label for qPCR (T7 phage fusion or DNA tag); purchased DiscoverX scanMAX; host or cells: E. coli BL21-derived (T7 phage) or HEK-293

INSR = biological target: T15, INSR (Homo sapiens, UniProt P06213); assay: KINOMEscan; assay type: binding; settings: read-out: %Ctrl @ 10000nM
T15 construct: purchased DiscoverX KINOMEscan

CDKL5 = biological target: T16, CDKL5 (Homo sapiens, UniProt O76039); assay: KINOMEscan; assay type: binding; settings: read-out: %Ctrl @ 10000nM
T16 construct: purchased DiscoverX KINOMEscan

STK35 = biological target: T17, STK35 (Homo sapiens, UniProt Q8TDR2); assay: KINOMEscan; assay type: binding; settings: read-out: %Ctrl @ 10000nM
T17 construct: DNA tag for qPCR (T7 phage fusion or DNA label); purchased DiscoverX KdELECT; host or cells: E. coli BL21-derived (T7 phage) or HEK-293

IGF1R = biological target: T18, IGF1R (Homo sapiens, UniProt P08069); assay: KINOMEscan; assay type: binding; settings: read-out: %Ctrl @ 10000nM
T18 construct: purchased DiscoverX KINOMEscan

AXL = biological target: T19, AXL (Homo sapiens, UniProt P30530); assay: KINOMEscan; assay type: binding; settings: read-out: %Ctrl @ 10000nM
T19 construct: purchased DiscoverX KINOMEscan

RIOK3 = biological target: T20, RIOK3 (Homo sapiens, UniProt O14730); assay: KINOMEscan; assay type: binding; settings: read-out: %Ctrl @ 10000nM
T20 construct: purchased DiscoverX KINOMEscan

EPHB1 = biological target: T21, EPHB1 (Homo sapiens, UniProt P54762); assay: KINOMEscan; assay type: binding; settings: read-out: %Ctrl @ 10000nM
T21 construct: purchased DiscoverX KINOMEscan

EGFR = biological target: T22, EGFR (Homo sapiens, UniProt P00533); assay: KINOMEscan; assay type: binding; settings: read-out: %Ctrl @ 10000nM
T22 construct: purchased DiscoverX KINOMEscan

CDK4-cyclinD1 = biological target: T23, CDK4-cyclinD1 (Homo sapiens, UniProt P11802); assay: KINOMEscan; assay type: binding; settings: read-out: %Ctrl @ 10000nM
T23 construct: purchased DiscoverX KINOMEscan

ERBB3 = biological target: T24, ERBB3 (Homo sapiens, UniProt P21860); assay: KINOMEscan; assay type: binding; settings: read-out: %Ctrl @ 10000nM
T24 construct: purchased DiscoverX KINOMEscan

PKAC-beta = biological target: T25, PKAC-beta (Homo sapiens, UniProt P22694); assay: KINOMEscan; assay type: binding; settings: read-out: %Ctrl @ 10000nM
T25 construct: purchased DiscoverX KINOMEscan

ALK = biological target: T26, ALK (Homo sapiens, UniProt Q9UM73); assay: KINOMEscan; assay type: binding; settings: read-out: %Ctrl @ 10000nM
T26 construct: purchased DiscoverX KINOMEscan

HIPK4 = biological target: T27, HIPK4 (Homo sapiens, UniProt Q8NE63); assay: KINOMEscan; assay type: binding; settings: read-out: %Ctrl @ 10000nM
T27 construct: purchased DiscoverX KINOMEscan

[1] = test system: 72 cellular proteins known to cause off-target effects; assay: SAFETYscan off-target panel; settings: 1 and 10 μM
NEK6 = biological target: T28, NEK6 (Homo sapiens, UniProt Q9HC98); assay: KINOMEscan; assay type: binding; settings: read-out: %Ctrl @ 10000nM
T28 construct: purchased DiscoverX KINOMEscan

FLT3(D835Y) = biological target: T29, FLT3(D835Y) (Homo sapiens, UniProt P36888, D835Y); assay: KINOMEscan; assay type: binding; settings: read-out: %Ctrl @ 10000nM
T29 construct: purchased DiscoverX KINOMEscan

PIK3CA = biological target: T30, PIK3CA (Homo sapiens, UniProt P42336); assay: KINOMEscan; assay type: binding; settings: read-out: %Ctrl @ 10000nM
T30 construct: purchased DiscoverX KINOMEscan

CSNK1G3 = biological target: T31, CSNK1G3 (Homo sapiens, UniProt Q9Y6M4); assay: KINOMEscan; assay type: binding; settings: read-out: %Ctrl @ 10000nM
T31 construct: purchased DiscoverX KINOMEscan

MYLK4 = biological target: T32, MYLK4 (Homo sapiens, UniProt Q86YV6); assay: KINOMEscan; assay type: binding; settings: read-out: %Ctrl @ 10000nM
T32 construct: purchased DiscoverX KINOMEscan

ANKK1 = biological target: T33, ANKK1 (Homo sapiens, UniProt Q8NFD2); assay: KINOMEscan; assay type: binding; settings: read-out: %Ctrl @ 10000nM
T33 construct: purchased DiscoverX KINOMEscan

ICK = biological target: T34, ICK (Homo sapiens, UniProt Q9UPZ9); assay: KINOMEscan; assay type: binding; settings: read-out: %Ctrl @ 10000nM
T34 construct: purchased DiscoverX KINOMEscan

FGFR4 = biological target: T35, FGFR4 (Homo sapiens, UniProt P22455); assay: KINOMEscan; assay type: binding; settings: read-out: %Ctrl @ 10000nM
T35 construct: purchased DiscoverX KINOMEscan

WEE1 = biological target: T36, WEE1 (Homo sapiens, UniProt P30291); assay: KINOMEscan; assay type: binding; settings: read-out: %Ctrl @ 10000nM
T36 construct: DNA label for qPCR (T7 phage fusion or DNA tag); purchased DiscoverX scanMAX; host or cells: E. coli BL21-derived (T7 phage) or HEK-293

ACVR2A = biological target: T37, ACVR2A (Homo sapiens, UniProt P27037); assay: KINOMEscan; assay type: binding; settings: read-out: %Ctrl @ 10000nM
T37 construct: purchased DiscoverX KINOMEscan

FLT3(R834Q) = biological target: T38, FLT3(R834Q) (Homo sapiens, UniProt P36888, R834Q); assay: KINOMEscan; assay type: binding; settings: read-out: %Ctrl @ 10000nM
T38 construct: purchased DiscoverX KINOMEscan

EPHB4 = biological target: T39, EPHB4 (Homo sapiens, UniProt P54760); assay: KINOMEscan; assay type: binding; settings: read-out: %Ctrl @ 10000nM
T39 construct: purchased DiscoverX KINOMEscan

LRRK2(G2019S) = biological target: T40, LRRK2(G2019S) (Homo sapiens, UniProt Q5S007, G2019S); assay: KINOMEscan; assay type: binding; settings: read-out: %Ctrl @ 10000nM
T40 construct: purchased DiscoverX KINOMEscan

SRPK3 = biological target: T41, SRPK3 (Homo sapiens, UniProt Q9UPE1); assay: KINOMEscan; assay type: binding; settings: read-out: %Ctrl @ 10000nM
T41 construct: purchased DiscoverX KINOMEscan

T31 sequence (Q9Y6M4 whole entry): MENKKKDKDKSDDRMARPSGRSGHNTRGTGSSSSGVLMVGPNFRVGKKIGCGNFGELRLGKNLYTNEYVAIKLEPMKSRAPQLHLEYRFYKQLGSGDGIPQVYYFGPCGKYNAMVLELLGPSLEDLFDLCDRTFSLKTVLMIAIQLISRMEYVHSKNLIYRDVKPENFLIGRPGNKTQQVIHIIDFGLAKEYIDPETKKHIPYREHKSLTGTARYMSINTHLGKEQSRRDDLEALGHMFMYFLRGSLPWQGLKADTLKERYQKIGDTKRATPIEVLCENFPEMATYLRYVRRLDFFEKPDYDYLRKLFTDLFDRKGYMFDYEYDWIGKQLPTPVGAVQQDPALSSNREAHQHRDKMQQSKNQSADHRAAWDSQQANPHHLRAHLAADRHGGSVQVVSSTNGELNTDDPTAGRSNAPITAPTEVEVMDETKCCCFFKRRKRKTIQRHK
T30 sequence (P42336 whole entry): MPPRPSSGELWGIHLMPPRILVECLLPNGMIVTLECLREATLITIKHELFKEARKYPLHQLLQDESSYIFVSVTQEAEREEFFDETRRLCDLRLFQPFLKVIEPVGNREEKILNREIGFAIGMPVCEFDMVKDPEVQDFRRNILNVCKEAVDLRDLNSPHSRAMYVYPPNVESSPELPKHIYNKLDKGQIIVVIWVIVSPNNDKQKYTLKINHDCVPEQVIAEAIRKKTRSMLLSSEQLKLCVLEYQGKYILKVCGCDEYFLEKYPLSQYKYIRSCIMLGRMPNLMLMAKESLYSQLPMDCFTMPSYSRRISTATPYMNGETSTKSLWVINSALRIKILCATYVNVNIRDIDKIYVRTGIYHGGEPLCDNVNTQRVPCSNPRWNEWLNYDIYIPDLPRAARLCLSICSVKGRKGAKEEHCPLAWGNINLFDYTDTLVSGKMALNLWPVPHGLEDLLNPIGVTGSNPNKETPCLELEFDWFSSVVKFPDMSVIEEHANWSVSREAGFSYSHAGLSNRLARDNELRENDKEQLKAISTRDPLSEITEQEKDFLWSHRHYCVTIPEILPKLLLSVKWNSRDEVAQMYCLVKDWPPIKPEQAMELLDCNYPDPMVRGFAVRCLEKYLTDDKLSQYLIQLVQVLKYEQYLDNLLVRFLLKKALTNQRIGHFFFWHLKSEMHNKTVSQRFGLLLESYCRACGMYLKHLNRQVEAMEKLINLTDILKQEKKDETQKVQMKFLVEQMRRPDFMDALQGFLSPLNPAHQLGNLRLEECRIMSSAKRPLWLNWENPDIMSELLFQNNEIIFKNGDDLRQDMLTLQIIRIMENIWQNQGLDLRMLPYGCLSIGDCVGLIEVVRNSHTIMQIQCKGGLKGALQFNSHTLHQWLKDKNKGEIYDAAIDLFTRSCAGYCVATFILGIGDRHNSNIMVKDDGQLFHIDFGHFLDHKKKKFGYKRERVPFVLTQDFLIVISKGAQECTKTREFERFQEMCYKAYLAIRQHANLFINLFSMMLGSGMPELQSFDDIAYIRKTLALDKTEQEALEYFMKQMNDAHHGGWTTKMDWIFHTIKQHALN
T1 sequence (P11802 whole entry): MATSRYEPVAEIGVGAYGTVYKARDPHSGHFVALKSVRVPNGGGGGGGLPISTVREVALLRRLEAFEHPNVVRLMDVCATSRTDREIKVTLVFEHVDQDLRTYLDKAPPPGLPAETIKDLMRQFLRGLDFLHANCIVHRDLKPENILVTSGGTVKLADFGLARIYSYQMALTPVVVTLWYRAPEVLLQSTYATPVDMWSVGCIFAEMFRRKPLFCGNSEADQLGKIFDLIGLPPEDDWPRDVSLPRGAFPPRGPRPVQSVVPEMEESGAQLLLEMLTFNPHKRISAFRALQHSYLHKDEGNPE
T1 sequence (P30281 whole entry partner): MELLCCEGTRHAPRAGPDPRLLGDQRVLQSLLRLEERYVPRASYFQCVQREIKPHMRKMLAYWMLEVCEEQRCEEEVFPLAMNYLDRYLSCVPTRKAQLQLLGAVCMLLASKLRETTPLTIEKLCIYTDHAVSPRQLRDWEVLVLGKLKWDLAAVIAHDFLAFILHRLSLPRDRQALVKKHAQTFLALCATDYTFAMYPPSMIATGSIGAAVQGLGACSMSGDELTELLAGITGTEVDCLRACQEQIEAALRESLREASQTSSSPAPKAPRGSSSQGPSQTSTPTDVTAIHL
T23 sequence (P11802 whole entry): as the sequence (P11802 whole entry) above
T23 sequence (P24385 whole entry partner): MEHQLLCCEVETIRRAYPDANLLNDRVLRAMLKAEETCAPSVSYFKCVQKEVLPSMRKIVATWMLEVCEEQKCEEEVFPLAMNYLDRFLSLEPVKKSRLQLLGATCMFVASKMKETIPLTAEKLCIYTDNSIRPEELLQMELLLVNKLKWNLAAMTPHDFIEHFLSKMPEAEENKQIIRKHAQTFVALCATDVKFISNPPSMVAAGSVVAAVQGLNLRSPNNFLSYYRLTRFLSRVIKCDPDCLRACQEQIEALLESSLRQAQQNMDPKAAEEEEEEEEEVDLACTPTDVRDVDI
T4 sequence (Q08345 19-913): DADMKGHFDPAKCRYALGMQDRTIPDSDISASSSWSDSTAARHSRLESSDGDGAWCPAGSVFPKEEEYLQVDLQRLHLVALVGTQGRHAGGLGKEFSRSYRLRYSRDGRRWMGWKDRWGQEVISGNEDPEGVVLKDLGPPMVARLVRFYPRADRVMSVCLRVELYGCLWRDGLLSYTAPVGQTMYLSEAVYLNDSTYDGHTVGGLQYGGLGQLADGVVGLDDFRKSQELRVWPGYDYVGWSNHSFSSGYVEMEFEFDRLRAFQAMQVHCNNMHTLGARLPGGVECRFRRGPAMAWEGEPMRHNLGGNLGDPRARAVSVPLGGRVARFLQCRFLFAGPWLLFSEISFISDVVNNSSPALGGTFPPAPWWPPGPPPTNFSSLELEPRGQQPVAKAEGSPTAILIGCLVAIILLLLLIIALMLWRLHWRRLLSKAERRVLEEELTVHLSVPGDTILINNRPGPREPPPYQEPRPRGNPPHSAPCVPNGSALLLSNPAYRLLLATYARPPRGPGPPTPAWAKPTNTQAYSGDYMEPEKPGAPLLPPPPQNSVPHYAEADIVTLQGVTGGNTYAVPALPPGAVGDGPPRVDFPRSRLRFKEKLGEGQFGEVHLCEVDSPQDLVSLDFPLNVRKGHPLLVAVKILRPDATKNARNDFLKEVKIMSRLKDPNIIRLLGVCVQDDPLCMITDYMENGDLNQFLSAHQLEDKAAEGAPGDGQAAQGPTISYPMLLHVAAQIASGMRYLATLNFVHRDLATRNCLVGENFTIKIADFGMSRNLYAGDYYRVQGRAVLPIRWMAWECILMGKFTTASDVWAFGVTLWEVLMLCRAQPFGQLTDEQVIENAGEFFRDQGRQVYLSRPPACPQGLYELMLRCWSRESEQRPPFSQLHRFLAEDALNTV
T11 sequence (Q16584 whole entry): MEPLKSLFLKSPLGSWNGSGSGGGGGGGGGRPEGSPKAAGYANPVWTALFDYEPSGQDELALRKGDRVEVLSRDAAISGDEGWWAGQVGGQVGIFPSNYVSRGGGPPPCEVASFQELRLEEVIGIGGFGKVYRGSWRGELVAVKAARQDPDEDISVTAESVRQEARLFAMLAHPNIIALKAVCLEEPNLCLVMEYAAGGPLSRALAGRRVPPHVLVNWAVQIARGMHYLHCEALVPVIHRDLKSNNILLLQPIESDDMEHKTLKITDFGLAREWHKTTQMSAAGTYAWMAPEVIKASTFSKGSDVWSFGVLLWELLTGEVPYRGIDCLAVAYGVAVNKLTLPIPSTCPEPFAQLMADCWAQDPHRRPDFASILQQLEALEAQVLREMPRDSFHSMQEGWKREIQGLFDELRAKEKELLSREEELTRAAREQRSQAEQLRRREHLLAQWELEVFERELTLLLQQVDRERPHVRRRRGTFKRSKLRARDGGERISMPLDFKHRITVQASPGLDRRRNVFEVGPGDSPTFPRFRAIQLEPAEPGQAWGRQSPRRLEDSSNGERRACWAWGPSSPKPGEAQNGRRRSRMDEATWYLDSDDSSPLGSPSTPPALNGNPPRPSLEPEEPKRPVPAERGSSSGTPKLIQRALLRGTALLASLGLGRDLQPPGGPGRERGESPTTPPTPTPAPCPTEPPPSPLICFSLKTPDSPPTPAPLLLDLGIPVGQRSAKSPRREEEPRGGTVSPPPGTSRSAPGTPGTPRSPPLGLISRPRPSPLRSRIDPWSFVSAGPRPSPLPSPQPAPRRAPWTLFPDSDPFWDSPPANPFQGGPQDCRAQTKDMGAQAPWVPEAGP
T3 sequence (Q9UBE8 whole entry): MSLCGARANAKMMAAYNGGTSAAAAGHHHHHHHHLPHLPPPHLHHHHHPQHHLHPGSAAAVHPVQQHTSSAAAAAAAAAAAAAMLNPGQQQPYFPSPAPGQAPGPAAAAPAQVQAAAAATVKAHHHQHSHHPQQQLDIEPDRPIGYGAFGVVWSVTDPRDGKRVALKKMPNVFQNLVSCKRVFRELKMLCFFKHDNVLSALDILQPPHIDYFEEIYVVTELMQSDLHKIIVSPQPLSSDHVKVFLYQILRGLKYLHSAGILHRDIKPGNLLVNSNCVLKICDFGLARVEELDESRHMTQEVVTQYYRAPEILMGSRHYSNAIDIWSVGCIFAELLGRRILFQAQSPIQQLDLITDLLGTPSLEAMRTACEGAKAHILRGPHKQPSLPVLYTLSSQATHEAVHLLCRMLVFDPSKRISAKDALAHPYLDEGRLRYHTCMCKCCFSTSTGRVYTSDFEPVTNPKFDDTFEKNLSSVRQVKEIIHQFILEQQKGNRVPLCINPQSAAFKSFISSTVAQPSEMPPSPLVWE

CC(C)c1ccc(CC(=O)N2CCN(c3ccc(C#N)nn3)CC2)cc1 [PZ-2891, 6-(4-(2-(4-isopropylphenyl)acetyl)piperazin-1-yl)pyridazine-3-carbonitrile] was tested, and the remaining binding at 10 µM (CDK4-cyclinD3) was 71%, the remaining binding at 10 µM (CSNK1G1) was 92% and the remaining binding at 10 µM (NLK) was 94%. It also gave a remaining binding at 10 µM (DDR1) of 81%, a remaining binding at 10 µM (VRK2) of 70% and a remaining binding at 10 µM (STK36) of 84%. It also gave a remaining binding at 10 µM (MARK2) of 70%, a remaining binding at 10 µM (PHKG2) of 100% and a remaining binding at 10 µM (ZAP70) of 96%. For the same compound, the remaining binding at 10 µM (YSK1) was 100%, the remaining binding at 10 µM (MLK3) was 80% and the remaining binding at 10 µM (ERK3) was 97%. It also gave a remaining binding at 10 µM (DYRK1A) of 71%, a remaining binding at 10 µM (TSSK1B) of 99% and a remaining binding at 10 µM (INSR) of 84%. The remaining binding at 10 µM (CDKL5) was 67%, the remaining binding at 10 µM (STK35) was 0.2% and the remaining binding at 10 µM (IGF1R) was 91%. It also gave a remaining binding at 10 µM (AXL) of 73%, a remaining binding at 10 µM (RIOK3) of 100% and a remaining binding at 10 µM (EPHB1) of 90%. For the same compound, the remaining binding at 10 µM (EGFR) was 78%, the remaining binding at 10 µM (CDK4-cyclinD1) was 100% and the remaining binding at 10 µM (ERBB3) was 60%. It also gave a remaining binding at 10 µM (PKAC-beta) of 95%, a remaining binding at 10 µM (ALK) of 100% and a remaining binding at 10 µM (HIPK4) of 94%. For the same compound, the off-target pharmacological interactions [1] was “absence of off-target pharmacological interactions”, the remaining binding at 10 µM (NEK6) was 91% and the remaining binding at 10 µM (FLT3(D835Y)) was 89%. It also gave a remaining binding at 10 µM (PIK3CA) of 95%, a remaining binding at 10 µM (CSNK1G3) of 80% and a remaining binding at 10 µM (MYLK4) of 92%. For the same compound, the remaining binding at 10 µM (ANKK1) was 78%, the remaining binding at 10 µM (ICK) was 81% and the remaining binding at 10 µM (FGFR4) was 73%. For the same compound, the remaining binding at 10 µM (WEE1) was 92%, the remaining binding at 10 µM (ACVR2A) was 100% and the remaining binding at 10 µM (FLT3(R834Q)) was 100%. It also gave a remaining binding at 10 µM (EPHB4) of 97%, a remaining binding at 10 µM (LRRK2(G2019S)) of 100% and a remaining binding at 10 µM (SRPK3) of 67%.

From paper PMC6199309, “A therapeutic approach to pantothenate kinase associated neurodegeneration” (Nature Communications, 2018)
